Measured values as given in patent publication US20250145645A1, “BORON CARRYING AGENT, PREPARATION METHOD AND PHARMACEUTICAL FORMULATION THEREOF” (Peking University, priority 2021, published 2025).

Legend:
[1] = tested on: cerebral glioma HS683 cells; test: Boron uptake in cells, B content by ICP-AES; type: cell-based; details: 12 hours, FIG. 3
[2] = tested on: cerebral glioma U87MG cells; test: Boron uptake in cells, B content by ICP-AES; type: cell-based; details: 12 hours, FIG. 3
Procedure: (§1) Compound I was formulated into aqueous solutions of 0.1 mg/g. 0.2 mg/g. 0.4 mg/g. 0.6 mg/g and 0.8 mg/g, added to U87MG, U251, A549 and A375 cell lines cultured in 25T petri dishes, respectively, and incubated in a thermostatic incubator for 12 hours. Subsequently, the cells and culture medium were separated, and the number of cells was determined. After the cells were digested with concentrated nitric acid, the B content in the cells was determined by ICP-AES.
(§2) The […] was 249.772 nm.
(§3) Meanwhile, the BPA was formulated into aqueous solutions of 0.1 mg/g, 0.2 mg/g, 0.4 mg/g, 0.6 mg/g, and 0.8 mg/g, added into U87MG, U251, A375 and HS683 cell lines cultured in 25T petri dishes, respectively, and cultured in a thermostatic incubator for 12 hours. Subsequently, the cells and culture medium were separated, and the number of cells was determined. After the cells were digested with concentrated nitric acid, the B content in the cells was determined by ICP-AES and plotted as shown in FIG. 2.

glioma cell line U251 = test: Boron uptake in cells, B content by ICP-AES; type: cell-based
Procedure: as §1, §2, §3

[3] = tested on: U87MG, U251, A549 and A375 cell lines; test: Boron uptake in tumor cell lines, B content in cells by ICP-AES; type: cell-based; details: 0.1-0.8 mg/g aqueous solutions, 12 hours incubation, FIG. 1
Procedure: as §1, §2

HS683 cerebral glioma = test: Tissue uptake in mouse cerebral glioma model, ICP-MS; type: in vivo, BALB/c mice; details: 500 mg/kg via tail vein, two hours after administration, FIG. 4
Procedure: Healthy BALB/c mice with an average weight of approximately 21 g were selected and inoculated with HS683 cerebral glioma to establish a mouse cerebral glioma model. After 21 days, the mouse cerebral glioma model was generated, and 500 mg/kg of BPA, temozolomide or compound I solution was injected via the tail vein of the mice. After administration, the major tissues and organs (heart, liver, spleen, lungs, kidneys and tumor sites) of the mice were removed at selected time periods (1 hour, 2 hours, and 4 hours). After washing and weighing, the tissues and organs were digested with concentrated nitric acid. The digested tissue sample was diluted and the concentration in the sample was determined by ICP-MS.

[4] = tested on: rat cerebral 9L gliosarcoma; details: cited from earlier work

Cn1nnc2c(C(=O)OCc3ccc([B-]45OCC[N+]4(C)CCO5)cc3)ncn2c1=O (stereo not shown) [Compound I]
cellular uptake compared with BPA [1]: significantly higher than BPA | cellular uptake compared with BPA [2]: significantly higher than BPA | cellular uptake compared with BPA (glioma cell line U251; U251 cells, 12 hours, FIG. 3): significantly higher than BPA | uptake, ranking among cell lines (glioma cell line U251; U251 versus U87MG, A549, A375, within 12 hours): best uptake | boron concentration in the cells (B content in every 10^6 cells) [3]: positively correlated with the concentration of the added product | uptake in the mouse cerebral glioma site compared with BPA (HS683 cerebral glioma): higher than that of BPA

N[C@@H](Cc1ccc(B(O)O)cc1)C(=O)O [BPA, ^10B-p-Dicarboxylboronic acid phenylalanine]
uptake by other types of tumor cells [4]: taken up
